Results: patent US20150086480A1, “HETEROARYL INHIBITORS OF PDE4” (Tetra Discovery Partners, LLC, priority 2013, published 2015)

Assays:
[1] = test system: recombinant human PDE4; settings: read-out: reported IC50 with respect to inhibiting recombinant human PDE4; cited from earlier work
[2] = molecular target: human PDE4D7 (mutation of serine 54 to aspartic acid) (Homo sapiens, UniProt Q08499, S190D); assay: Kinetic assay of PDE4 activity (cAMP hydrolysis, coupled-enzyme fluorescence); assay type: biochemical; settings: inhibition of cAMP hydrolysis by human PDE4D; each concentration tested in duplicate; FIG. 1; read-out: One-half maximal inhibition of PDE4D (IC50)
Sequence of human PDE4D7 (mutation of serine 54 to aspartic acid) (Q08499 1-748 isoform Q08499-11 S129D): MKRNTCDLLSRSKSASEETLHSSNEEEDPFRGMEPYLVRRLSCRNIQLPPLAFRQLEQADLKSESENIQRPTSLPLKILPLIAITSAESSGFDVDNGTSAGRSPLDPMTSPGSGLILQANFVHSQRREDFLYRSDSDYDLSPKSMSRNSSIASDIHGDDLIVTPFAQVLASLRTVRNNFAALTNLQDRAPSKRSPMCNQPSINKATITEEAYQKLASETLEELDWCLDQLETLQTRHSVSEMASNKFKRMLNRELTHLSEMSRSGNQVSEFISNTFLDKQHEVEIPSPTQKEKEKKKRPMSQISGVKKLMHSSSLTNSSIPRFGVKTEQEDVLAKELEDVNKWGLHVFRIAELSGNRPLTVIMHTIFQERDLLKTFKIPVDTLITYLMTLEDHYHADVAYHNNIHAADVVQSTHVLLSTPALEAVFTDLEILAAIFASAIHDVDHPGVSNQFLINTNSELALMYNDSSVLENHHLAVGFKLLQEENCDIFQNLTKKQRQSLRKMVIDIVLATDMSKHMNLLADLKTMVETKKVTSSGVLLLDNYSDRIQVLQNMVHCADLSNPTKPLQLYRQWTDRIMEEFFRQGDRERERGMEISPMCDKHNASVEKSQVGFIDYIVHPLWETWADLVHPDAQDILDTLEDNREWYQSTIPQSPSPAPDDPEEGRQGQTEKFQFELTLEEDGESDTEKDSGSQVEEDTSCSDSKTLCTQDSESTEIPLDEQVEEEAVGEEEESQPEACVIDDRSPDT
Description: PDE4D inhibition is measured by the method of Burgin et al, (2010) Design of Phosphodiesterase Type 4D (PDE4D) Allosteric Modulators for Cognition with Improved Safety. Nature Biotechnology 28:63-70. Each concentration of Example 1 was tested in duplicate (round symbols).
PDE4 activity may be measured by any method known in the art. Here, a kinetic assay of cAMP hydrolysis by purified PDE4 was used, in which PDE4 activity was measured by coupling the formation of the PDE4 reaction product, 5′-adenosine monophosphate, to the oxidation of reduced nicotinamide adenine dinucleotide (NADH) by the use of three coupling enzymes (myokinase, pyruvate kinase and lactate dehydrogenase), which allows fluorescent determination of reaction rates. Assays are performed in 96-well plates in a total volume of 200 μl/well. Compounds are dissolved in dimethylsulfoxide (DMSO) and added to plates in a volume of 10 μl followed by addition of 165 μl of assay mix. Plates are pre-incubated at 25° C. for 15 min and the reactions are initiated by the addition of 25 μl of cAMP followed by thorough mixing. Reaction rates are measured by monitoring the decrease in fluorescence using excitation at 355 nm and emission at 460 nm for a period of 10 min in a fluorescence plate reader. Initial rates (slopes) are determined from linear portions of the progress curves. […]

IC50 [2] | SMILES | IC50 [1]
 | COc1ccc(C2CNC(=O)C2)cc1OC1CCCC1 (centres unmarked) [rolipram] | ~200 nM
0.15 nM | O=[N+]([O-])c1cccc(-c2cc(Cc3ccc(F)cc3)cc3c2OCC3)c1 [Example 1, 5-[(4-fluorophenyl)methyl]-7-(3-nitrophenyl)-2,3-dihydrobenzofuran] | 
